From article PMC9945863, “Pyridine based dual binding site aromatase (CYP19A1) inhibitors” (RSC Medicinal Chemistry, 2023)
Where two headings read alike, the source gives them in different places. Blank lines part the entries; values can stand above or below the compound they belong to.

Assays:
Aromatase (CYP19A1) = target: T1, Aromatase (CYP19A1) (Homo sapiens, UniProt P11511); assay: Aromatase activity, modified tritiated water assay in JEG-3 cells; format: cell-based
T1 construct: placental choriocarcinoma JEG-3 cells, known to have high aromatase activity; host or cells: JEG-3
T1 sequence (P11511 1-503): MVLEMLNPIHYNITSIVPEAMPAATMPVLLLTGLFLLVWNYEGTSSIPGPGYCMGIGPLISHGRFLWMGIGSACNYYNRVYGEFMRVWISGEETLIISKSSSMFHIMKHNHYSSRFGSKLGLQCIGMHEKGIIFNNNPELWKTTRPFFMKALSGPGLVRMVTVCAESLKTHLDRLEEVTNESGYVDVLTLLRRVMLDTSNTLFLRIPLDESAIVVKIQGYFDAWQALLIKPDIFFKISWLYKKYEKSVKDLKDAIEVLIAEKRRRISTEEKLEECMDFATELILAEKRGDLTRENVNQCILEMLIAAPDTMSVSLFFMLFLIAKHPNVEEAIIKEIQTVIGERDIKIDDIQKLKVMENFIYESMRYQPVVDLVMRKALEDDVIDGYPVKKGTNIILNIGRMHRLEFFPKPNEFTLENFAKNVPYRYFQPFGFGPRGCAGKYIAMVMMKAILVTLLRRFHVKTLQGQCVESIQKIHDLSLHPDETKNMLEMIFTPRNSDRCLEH
Procedure: Briefly, placental choriocarcinoma JEG-3 cells, known to have high aromatase activity, were grown to approximately 80% confluence in six-well culture plates. Once established, cells were treated with androst-4-ene-3,17-dione[1β-^3H] as aromatase substrate. Aromatase activity was measured in the absence and presence of inhibitors (Fig. 3).
Aromatase activity results were determined as a concentration of product formed per mg of protein per hour.
Aromatase activity was assayed using a modified tritiated water assay as previously reported.[12] JEG-3 cells were grown in 1 mL EMEM to approximately 80% confluence in six-well cell culture plates. Androst-4-ene-3,17-dione[1β-^3H] was dissolved in serum-free cell culture medium and added into each well. Aromatase activity was measured in the absence and presence of inhibitor (0.001–10 nM). After a 1 h incubation at 37 °C followed by a 5 min incubation on ice, 500 μL of culture medium was taken from each well. Medium was vortexed with 2% dextran-treated charcoal (Sigma-Aldrich) in PBS and centrifuged at 4000 rpm. The supernatant containing the product, [^3H] H2O, was quantified by scintillation counting. Cell protein concentrations were determined using Pierce BCA assay kit (Thermo Fisher Scientific). Aromatase activity results were determined as a concentration of product formed per mg of protein per hour (pmol mg^−1 h^−1).

[1] = target: CYP2D6 (relative to CYP19A1) (Homo sapiens, UniProt P10635); assay: in vitro; conditions: Selectivity CYP19A1 compared with CYP2D6, ratio of CYP IC50 to CYP19A1 IC50
CYP3A4 [2] = target: T2, CYP3A4 (Homo sapiens, UniProt P08684); assay: CYP panel inhibition, human liver microsomal assay (Cyprotex); format: in vitro ADME; conditions: human liver microsomes, isoform specific probe substrate
T2 construct: using a human liver microsomal assay with a CYP isoform specific probe substrate; tissue Cyprotex Discovery Limited; host or cells: human liver microsomes

[3] = target: T3, CYP3A4 (relative to CYP19A1) (Homo sapiens, UniProt P08684); assay: as above; format: in vitro ADME; conditions: human, human liver microsomes; ratio of CYP IC50 to CYP19A1 IC50; read-out: Selectivity CYP19A1 compared with CYP3A4
T3 construct: using a human liver microsomal assay with a CYP isoform specific probe substrate; tissue Cyprotex Discovery Limited; host or cells: human liver microsomes

[4] = target: T4, CYP2C9 (relative to CYP19A1) (Homo sapiens, UniProt P11712); assay: as above; format: in vitro ADME; conditions: human, human liver microsomes; ratio of CYP IC50 to CYP19A1 IC50; read-out: Selectivity CYP19A1 compared with CYP2C9
T4 construct: using a human liver microsomal assay with a CYP isoform specific probe substrate; tissue Cyprotex Discovery Limited; host or cells: human liver microsomes

CYP2C9 [5] = target: T5, CYP2C9 (Homo sapiens, UniProt P11712); assay: as above; format: in vitro ADME; conditions: human liver microsomes, isoform specific probe substrate
T5 construct: tissue Cyprotex Discovery Limited; host or cells: human liver microsomes

CYP2D6 = CYP2D6 (Homo sapiens, UniProt P10635); assay: as above; conditions: read-out: CYP2D6 IC50; human liver microsomes, isoform specific probe substrate
[6] = target: T6, CYP2C19 (relative to CYP19A1) (Homo sapiens, UniProt P33261); assay: as above; format: in vitro ADME; conditions: human, human liver microsomes; ratio of CYP IC50 to CYP19A1 IC50; read-out: Selectivity CYP19A1 compared with CYP2C19
T6 construct: using a human liver microsomal assay with a CYP isoform specific probe substrate; tissue Cyprotex Discovery Limited; host or cells: human liver microsomes

CYP2C19 [7] = target: T7, CYP2C19 (Homo sapiens, UniProt P33261); assay: as above; format: in vitro ADME; conditions: human liver microsomes, isoform specific probe substrate
T7 construct: using a human liver microsomal assay with a CYP isoform specific probe substrate; tissue Cyprotex Discovery Limited; host or cells: human liver microsomes

[8] = target: T8, CYP1A2 (relative to CYP19A1) (Homo sapiens, UniProt P05177); assay: as above; format: in vitro ADME; conditions: human, human liver microsomes; ratio of CYP IC50 to CYP19A1 IC50; read-out: Selectivity CYP19A1 compared with CYP1A2
T8 construct: using a human liver microsomal assay with a CYP isoform specific probe substrate; tissue Cyprotex Discovery Limited; host or cells: human liver microsomes
T8 sequence (P05177 1-516): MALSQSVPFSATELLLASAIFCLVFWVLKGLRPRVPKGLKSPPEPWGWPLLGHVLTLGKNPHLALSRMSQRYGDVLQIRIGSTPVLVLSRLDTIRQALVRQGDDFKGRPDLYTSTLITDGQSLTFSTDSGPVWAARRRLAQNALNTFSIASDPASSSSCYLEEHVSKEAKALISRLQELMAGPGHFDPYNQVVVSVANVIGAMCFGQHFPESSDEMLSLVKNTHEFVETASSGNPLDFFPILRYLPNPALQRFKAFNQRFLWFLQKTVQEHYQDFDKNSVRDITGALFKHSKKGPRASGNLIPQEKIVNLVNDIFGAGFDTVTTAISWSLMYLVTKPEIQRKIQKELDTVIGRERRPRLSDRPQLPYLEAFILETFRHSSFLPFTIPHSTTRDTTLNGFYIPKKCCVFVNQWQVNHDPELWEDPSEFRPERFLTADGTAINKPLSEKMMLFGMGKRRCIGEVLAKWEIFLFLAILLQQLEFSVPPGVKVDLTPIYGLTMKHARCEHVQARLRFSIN

CYP1A2 [9] = target: T9, CYP1A2 (Homo sapiens, UniProt P05177); assay: as above; format: in vitro ADME; conditions: human liver microsomes, isoform specific probe substrate
T9 construct: using a human liver microsomal assay with a CYP isoform specific probe substrate; tissue Cyprotex Discovery Limited; host or cells: human liver microsomes
T9 sequence (P05177 1-516): T8 sequence (P05177 1-516)

CYP2C19 [10] = test system: CYP2C19; parameters: method as in PMID 19198839, PMID 28977209; conditions: cited from earlier work
CYP2A6 = test system: CYP2A6; parameters: method as in PMID 19198839, PMID 28977209; conditions: cited from earlier work
CYP1A2 [11] = conditions: cited from earlier work
CYP3A4 [12] = conditions: cited from earlier work
CYP2C9 [13] = conditions: cited from earlier work
[14] = heterocyclic nitrogen basicity; cited from earlier work
[15] = JEG-3 cells, 0.001–10 nM inhibitor, 1 h incubation, triplicates, read-out: CYP19A1 IC50

T3 sequence (P08684 whole entry, canonical isoform): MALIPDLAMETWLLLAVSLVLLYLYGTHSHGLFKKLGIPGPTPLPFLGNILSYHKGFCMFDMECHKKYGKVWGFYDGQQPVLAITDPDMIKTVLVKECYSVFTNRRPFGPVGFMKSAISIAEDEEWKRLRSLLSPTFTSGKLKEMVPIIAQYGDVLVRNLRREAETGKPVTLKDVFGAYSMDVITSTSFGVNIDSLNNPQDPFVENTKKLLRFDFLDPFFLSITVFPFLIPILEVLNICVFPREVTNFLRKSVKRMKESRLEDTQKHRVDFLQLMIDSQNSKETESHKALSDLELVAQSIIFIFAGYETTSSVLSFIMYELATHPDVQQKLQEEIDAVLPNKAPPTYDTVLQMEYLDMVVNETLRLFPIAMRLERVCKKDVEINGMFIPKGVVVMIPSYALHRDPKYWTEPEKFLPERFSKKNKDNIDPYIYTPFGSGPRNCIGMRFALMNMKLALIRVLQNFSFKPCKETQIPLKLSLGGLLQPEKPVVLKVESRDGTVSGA
T2 sequence (P08684 whole entry, canonical isoform): as above
Sequence of CYP2D6 (relative to CYP19A1) (P10635 whole entry, canonical isoform): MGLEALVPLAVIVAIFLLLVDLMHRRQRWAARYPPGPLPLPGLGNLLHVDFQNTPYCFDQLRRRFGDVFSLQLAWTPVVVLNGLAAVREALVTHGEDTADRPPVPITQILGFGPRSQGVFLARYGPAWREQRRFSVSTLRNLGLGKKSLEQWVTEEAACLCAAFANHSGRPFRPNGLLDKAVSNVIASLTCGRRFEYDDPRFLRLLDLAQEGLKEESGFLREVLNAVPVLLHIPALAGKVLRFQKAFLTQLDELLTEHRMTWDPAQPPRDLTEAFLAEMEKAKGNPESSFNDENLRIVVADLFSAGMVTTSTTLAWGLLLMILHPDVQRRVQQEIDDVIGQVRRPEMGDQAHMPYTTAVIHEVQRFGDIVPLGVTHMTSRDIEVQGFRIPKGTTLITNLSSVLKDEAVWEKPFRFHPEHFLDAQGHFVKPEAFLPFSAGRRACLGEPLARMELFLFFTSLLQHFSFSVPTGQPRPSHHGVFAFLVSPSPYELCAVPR
Sequence of CYP2D6 (P10635 whole entry, canonical isoform): as above
T4 sequence (P11712 whole entry, canonical isoform): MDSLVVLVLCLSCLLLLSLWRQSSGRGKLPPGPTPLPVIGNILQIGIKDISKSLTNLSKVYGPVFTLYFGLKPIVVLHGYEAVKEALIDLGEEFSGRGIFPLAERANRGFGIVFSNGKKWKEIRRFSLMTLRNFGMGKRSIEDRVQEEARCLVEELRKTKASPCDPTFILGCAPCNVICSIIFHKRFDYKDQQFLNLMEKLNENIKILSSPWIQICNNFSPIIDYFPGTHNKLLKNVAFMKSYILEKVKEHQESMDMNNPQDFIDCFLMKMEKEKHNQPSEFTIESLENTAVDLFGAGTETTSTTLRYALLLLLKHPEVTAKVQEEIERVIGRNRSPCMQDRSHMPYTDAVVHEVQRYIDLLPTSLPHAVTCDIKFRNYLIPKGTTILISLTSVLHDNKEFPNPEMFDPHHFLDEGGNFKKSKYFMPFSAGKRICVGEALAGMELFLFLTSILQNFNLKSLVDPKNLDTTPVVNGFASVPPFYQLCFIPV
T5 sequence (P11712 whole entry, canonical isoform): as above
T7 sequence (P33261 whole entry, canonical isoform): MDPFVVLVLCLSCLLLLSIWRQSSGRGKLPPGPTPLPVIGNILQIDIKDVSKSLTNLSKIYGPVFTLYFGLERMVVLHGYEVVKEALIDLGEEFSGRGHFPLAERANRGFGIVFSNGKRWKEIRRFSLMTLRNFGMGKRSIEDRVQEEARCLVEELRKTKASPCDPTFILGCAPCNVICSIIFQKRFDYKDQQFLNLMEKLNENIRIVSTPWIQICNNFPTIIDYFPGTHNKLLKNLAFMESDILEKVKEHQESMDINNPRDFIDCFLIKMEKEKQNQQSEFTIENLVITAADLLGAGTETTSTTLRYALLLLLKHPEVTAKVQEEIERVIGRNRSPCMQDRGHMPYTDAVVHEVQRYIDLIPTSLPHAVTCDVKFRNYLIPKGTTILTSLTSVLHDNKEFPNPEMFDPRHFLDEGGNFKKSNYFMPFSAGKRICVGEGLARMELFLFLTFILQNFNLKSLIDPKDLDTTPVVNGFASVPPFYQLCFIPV
T6 sequence (P33261 whole entry, canonical isoform): as above

IC50 (Aromatase (CYP19A1); [15]): ~0.01 µM
SMILES: CC#CCOc1ccc2cc(C(O)(c3ccc(F)cc3)c3cccnc3)oc2c1 (stereo not drawn) [Compound 10a, (6-(But-2-yn-1-yloxy)benzofuran-2-yl)(4-fluorophenyl)(pyridin-3-yl)methanol]

IC50 (Aromatase (CYP19A1); [15]): 0.00105 µM
SMILES: CC#CCOc1ccc2cc(C(O)(c3ccc(Cl)cc3)c3cccnc3)oc2c1 (stereo not drawn) [Compound 10b, (6-(But-2-yn-1-yloxy)benzofuran-2-yl)(4-chlorophenyl)(pyridin-3-yl)methanol]

IC50 (Aromatase (CYP19A1); [15]): > 0.01 µM
SMILES: CC#CCOc1ccc2cc(C(O)(c3cccnc3)c3ccc(Cl)cc3Cl)oc2c1 (stereo not drawn) [Compound 10d, (6-(But-2-yn-1-yloxy)benzofuran-2-yl)(2,4-dichlorophenyl)(pyridin-3-yl)methanol]

IC50 (Aromatase (CYP19A1); [15]): ~0.01 µM
SMILES: CCC#CCOc1ccc2cc(C(O)(c3ccc(F)cc3)c3cccnc3)oc2c1 (stereo not drawn) [Compound 11a, (4-Fluorophenyl)(6-(pent-2-yn-1-yloxy)benzofuran-2-yl)(pyridin-3-yl)methanol]

IC50 (Aromatase (CYP19A1); [15]): 0.00092 µM
SMILES: CCC#CCOc1ccc2cc(C(O)(c3ccc(Cl)cc3)c3cccnc3)oc2c1 (stereo not drawn) [Compound 11b, (4-Chlorophenyl)(6-(pent-2-yn-1-yloxy)benzofuran-2-yl)(pyridin-3-yl)methanol]

IC50 (Aromatase (CYP19A1); [15]): 0.0049 µM
SMILES: CCC#CCOc1ccc2cc(C(O)(c3ccc(Br)cc3)c3cccnc3)oc2c1 (stereo not drawn) [Compound 11c, (4-Bromophenyl)(6-(pent-2-yn-1-yloxy)benzofuran-2-yl)(pyridin-3-yl)methanol]

IC50 (Aromatase (CYP19A1); [15]): > 0.01 µM
SMILES: CCC#CCOc1ccc2cc(C(O)(c3cccnc3)c3ccc(Cl)cc3Cl)oc2c1 (stereo not drawn) [Compound 11d, (2,4-Dichlorophenyl)(6-(pent-2-yn-1-yloxy)benzofuran-2-yl)(pyridin-3-yl)methanol]

The remaining lines, values behind:

SMILES: COc1ccc2cc(C(O)(c3ccc(Br)cc3)c3cccnc3)oc2c1 (stereo not drawn) [Compound 4c, (4-Bromophenyl)(6-methoxybenzofuran-2-yl)(pyridin-3-yl)methanol]
IC50 (Aromatase (CYP19A1); [15]): 0.0004 µM

SMILES: COc1ccc2cc(C(O)(c3cccnc3)c3ccc(Cl)cc3Cl)oc2c1 (stereo not drawn) [Compound 4d, (2′,4′-Dichlorophenyl)(6-methoxybenzofuran-2-yl)(pyridin-3-yl)methanol]
IC50 (Aromatase (CYP19A1); [15]): 0.0019 µM

SMILES: CC#CCOc1ccc2cc(C(O)(c3ccc(Br)cc3)c3cccnc3)oc2c1 (stereo not drawn) [Compound 10c, (4-Bromophenyl)(6-(but-2-yn-1-yloxy)benzofuran-2-yl)(pyridin-3-yl)methanol]
selectivity ratio [1]: > 30000
IC50 (CYP3A4 [2]): 3380 ± 510 nM
selectivity ratio [3]: 4070
IC50 (Aromatase (CYP19A1); CYP19A1 value restated in μM in CYP profile table, read-out: IC50, CYP isoform 19A1): 0.00083 µM
IC50 (Aromatase (CYP19A1); [15]): 0.00083 µM
selectivity ratio [4]: 5900
IC50 (CYP2C9 [5]): 4900 ± 940 nM
IC50 (CYP2D6): > 25000 nM
selectivity ratio [6]: 892
IC50 (CYP2C19 [7]): 740 ± 160 nM
selectivity ratio [8]: > 30000
IC50 (CYP1A2 [9]): > 25000 nM

SMILES: N#Cc1ccc(C(c2ccc(C#N)cc2)n2cncn2)cc1 [Letrozole]
inhibition of CYP2C19 (CYP2C19 [10]): modest inhibition
inhibition of CYP2A6 (CYP2A6): significant competitive inhibition

SMILES: CC(C)(C#N)c1cc(Cn2cncn2)cc(C(C)(C)C#N)c1 [anastrozole]
inhibition of CYP1A2 (CYP1A2 [11]): some inhibition
inhibition of CYP3A4 (CYP3A4 [12]): some inhibition
inhibition of CYP2C9 (CYP2C9 [13]): some inhibition

SMILES: c1nnn[nH]1 [tetrazole]
pKa [14]: 4.8
